Results: patent publication US20150297552A1, “FERTILITY ENHANCING AGENT” (OCTAPAM LIMITED, priority 2012, published 2015)

Legend:
[1] = system: Wistar rats; assay: Reproductive function study, agents administered to male rats and female rats separately (Example 2); assay type: in vivo, rat; settings: for Amount of embryonate female rats: of 20 added females; for Amount of babies delivered by 1 female / Amount of dead fetuses / Amount of gestation female rats / Amount of implantation sites / Amount of resorptions / Amount of viable fetuses / Amount of yellow bodies / Carniocaudal size of fetus / Fertility index / Fetus body weight / Gestation index / Post-implantation loss / Postnatal loss after 3 weeks / Pre-implantation loss / Weight of newborn baby rats / Dynamics of infant body weight, 1st week / Dynamics of infant body weight, 2nd week / Dynamics of infant body weight, 3rd week / Dynamics of infant body weight, 4th week: 0.35 mg/kg
Experimental: 180 male and female Wistar rats were studied in the experiments (initial body weight—180-200 g). The prototype agent and the agent of present invention in the clathrate complex form were administered intragastrically in amount of 0.35 mg/kg. Female group of 120 animals was broken into two subgroups: control group (80 animals) and study group (40 animals). The prototype agent and the agent of present invention in the clathrate complex form were intragastrically administered to female rats of study group once a day during 2 weeks (3-4 estrous cycles). Male group of 60 animals was broken into two subgroups: control group (40 animals) and study group (20 animals). The prototype agent and the agent of present invention in the clathrate complex form were intragastrically administered to male rats of study group daily during 10 weeks (2-3 cycles of spermatozoa maturation). Corresponding amounts of placebo comprised of vegetable oil or β-cyclodextrin were administered to animals of the control group with the same intervals. The placebo was chosen based on the fact that the prototype agent is an oil-soluble compound and the agent of present invention in the clathrate complex form is a water soluble compound. The drugs were administered once daily (at 10 a.m.).
After administering the medication 6 groups of animals were formed: • the first (vegetable oil)—20 control female rats were housed together with 10 control male rats; • the second (β-cyclodextrin)—20 control female rats were housed together with 10 control male rats; • the third (the prototype, 0.35 mg/kg)—20 study female rats were housed together with 10 control male rats; • the fourth (the prototype, 0.35 mg/kg)—20 control female rats were housed together with 10 study male rats; • the fifth (the agent of present invention in the clathrate complex form 0.35 mg/kg)—20 study female rats were housed together with 10 control male rats; • the sixth (the agent of present invention in the clathrate complex form 0.35 mg/kg)—20 control female rats were housed together with 10 study male rats.
A pre- and post-implantation fetal death indexes, fertility index and gestation index were calculated according to equations cited in Example 1.

[2] = system: Wistar rats; assay: Reproductive function study, agents administered to male rats (Example 1); assay type: in vivo, rat; settings: for Amount of gestation female rats / Fertility index / Gestation index / Amount of embryonate female rats: administered to male rats; for Amount of embryonate female rats: of 20 females housed with males; for Amount of babies delivered by 1 female / Post-implantation loss / Postnatal loss after 3 weeks / Pre-implantation loss / Weight of newborn baby rats / Dynamics of babies' body weight, 1st week / Dynamics of babies' body weight, 2nd week / Dynamics of babies' body weight, 3rd week / Dynamics of babies' body weight, 4th week / Craniocaudal size of fetus / Fetus weight / Amount of dead fetuses / Amount of implantation sites / Amount of resorptions / Amount of viable fetuses / Amount of yellow bodies: 10 weeks; for Craniocaudal size of fetus / Fetus weight: 20th day of gestation; for Amount of dead fetuses / Amount of implantation sites / Amount of resorptions / Amount of viable fetuses / Amount of yellow bodies: females sacrificed on 20th day of gestation
Experimental: 180 male and female Wistar rats were tested in the 110 experiments (initial body weight—180-200 g).
Group of 60 male rats was grouped into 6 subgroups each including 10 animals. Each group was treated as follows: group 1—vegetable oil, group 2—β-cyclodextrin, group 3—the agent of present invention, 0.35 mg/kg (the prototype agent), group 4—medication, 0.70 mg/kg (the prototype agent), group 5—the agent of present invention in a clathrate complex, 0.35 mg/kg, group 6—the agent of present invention in a clathrate complex, 0.70 mg/kg.
Male rats of the study subgroups were intragastrically given the above mentioned doses of the prototype agent and the agent of present invention in the clathrate complex form daily during 10 weeks (2-3 cycles of spermatozoa maturation). At the same time, animals of control groups were treated with corresponding amounts of placebo consisting of the vegetable oil or β-cyclodextrin. The placebo was chosen based on the fact that the prototype agent is an oil-soluble compound and the agent of present invention in the clathrate complex form is a water soluble compound. The drugs were administered once daily (at 10 a.m.).
After completion of dosing 6 groups of animals were formed: • the first (vegetable oil)—20 control female rats were housed together with 10 control male rats; the second (β-cyclodextrin)—20 control female rats were housed together with 10 control male rats; the third (the prototype agent, 0.35 mg/kg)—20 study female rats housed together with 10 control male rats; • the fourth (the prototype, 0.70 mg/kg)—20 control female rats were housed together with 10 study male rats; • the fifth (the agent of present invention in the clathrate complex form 0.35 mg/kg)—20 study female rats were housed together with 10 control male rats; • the sixth (the agent of present invention in the clathrate complex form 0.70 mg/kg)—20 control female rats were housed together with 10 study male rats.
During two estrous cycles, vaginal smear preparations were analyzed. Proestrus, estrus and metaestrum phases were detected. Presence of spermatozoa in vaginal smear preparations was registered as the first day of gestation. After 10 days, two subgroups of gestation female rats were formed from female rats in each of […] groups. Female rats of the first subgroups were sacrificed on 20th day of gestation. Amount of fetuses, resorption, implantation sites in the uterine cavity and yellow bodies of ovary were counted. Based on the obtained data, pre-implantation and post-implantation fetal death indexes were calculated according to the following equation: […]
where N1—amount of yellow bodies, N2—amount of implantation sites
where N1—amount of implantation sites N2—amount of viable fetuses.
Further, fertility index (ratio between the amount of female rats housed together with male rats to the amount of female rats having spermatozoa in vaginal smear preparations) and gestation index (ratio between the amount of female rats having spermatozoa in vaginal smear preparations to the amount of animals with full-term pregnancy):
where N1—amount of embryonate female rats N2—amount female rats housed together with male rats
where N1—amount of gestation female rats N2—amount of embryonate female rats Pathological changes (subcutaneous hematomas and edemas, developmental defects of skeletal system and eye globes) were registered.
The second groups of gestation female rats were allowed to parturiate under monitoring. Animals were weighed weekly and weight gain was registered. Parturition date, amount of babies in the brood and weight of babies were recorded. On 21st day after parturition, the survival rate and total and median weight of babies were measured.

[3] = Solubility character of the agents; assay type: physicochemical
[4] = administered to female rats, 2 weeks
[5] = administered to male rats, 10 weeks
[6] = 0.35 mg/kg intragastrically daily during 10 weeks
[7] = 0.70 mg/kg intragastrically daily during 10 weeks

For `c1ccc(C2C3=C(CCCC3)[Se]C3=C2CCCC3)cc1` [Prototype agent, 9-phenyl-sym-octahydroselenoxanthene], the “Amount of embryonate female rats” value ([1]; administered to female rats, 0.35 mg/kg intragastrically once a day during 2 weeks) was 16, the “Amount of babies delivered by 1 female” value [1, 4] was 8.6 ± 0.9 and the “Amount of dead fetuses” value [1, 4] was 0. The “Amount of gestation female rats” value [1, 4] was 14, the “Amount of implantation sites” value [1, 4] was 9.9 ± 0.6 and the Amount of resorptions [1, 4] was 0.4 ± 0.2. The “Amount of viable fetuses” value [1, 4] was 9.2 ± 1.1, the “Amount of yellow bodies” value [1, 4] was 10.7 ± 0.7 and the “Carniocaudal size of fetus” value [1, 4] was 35 ± 2 mm. For the same compound, the Fertility index [1, 4] was 80%, the Fetus body weight [1, 4] was 3.4 ± 0.2 g and the Gestation index [1, 4] was 88%. The Post-implantation loss [1, 4] was 7.1%, the “Postnatal loss after 3 weeks” value [1, 4] was 2.5% and the Pre-implantation loss [1, 4] was 7.5%. For the same compound, the “Weight of newborn baby rats” value [1, 4] was 6.2 ± 0.9 g, the “Dynamics of infant body weight, 1st week” value [1, 4] was 18.8 ± 1.2 g and the “Dynamics of infant body weight, 2nd week” value [1, 4] was 26.3 ± 1.5 g. For the same compound, the “Dynamics of infant body weight, 3rd week” value [1, 4] was 47.4 ± 2.0 g, the “Dynamics of infant body weight, 4th week” value [1, 4] was 61.5 ± 2.8 g and the “Amount of embryonate female rats” value ([1]; administered to male rats, 0.35 mg/kg intragastrically daily during 10 weeks) was 17. For the same compound, the “Amount of babies delivered by 1 female” value [1, 5] was 8.7 ± 0.8, the “Amount of dead fetuses” value [1, 5] was 0 and the “Amount of gestation female rats” value [1, 5] was 15. For the same compound, the “Amount of implantation sites” value [1, 5] was 10.1 ± 1.1, the Amount of resorptions [1, 5] was 0.4 ± 0.2 and the “Amount of viable fetuses” value [1, 5] was 9.4 ± 1.0. The “Amount of yellow bodies” value [1, 5] was 10.8 ± 0.8, the “Carniocaudal size of fetus” value [1, 5] was 35 ± 1 mm and the Fertility index [1, 5] was 85%. For the same compound, the Fetus body weight [1, 5] was 3.5 ± 0.2 g, the Gestation index [1, 5] was 88% and the Post-implantation loss [1, 5] was 6.9%. The “Postnatal loss after 3 weeks” value [1, 5] was 2.6%, the Pre-implantation loss [1, 5] was 6.5% and the “Weight of newborn baby rats” value [1, 5] was 6.4 ± 1.2 g. For the same compound, the “Dynamics of infant body weight, 1st week” value [1, 5] was 20.1 ± 0.9 g, the “Dynamics of infant body weight, 2nd week” value [1, 5] was 27.2 ± 1.5 g and the “Dynamics of infant body weight, 3rd week” value [1, 5] was 45.9 ± 1.9 g. For the same compound, the “Dynamics of infant body weight, 4th week” value [1, 5] was 61.9 ± 2.6 g, the “Amount of gestation female rats” value [2, 6] was 13 and the Fertility index [2, 6] was 80%. The Gestation index [2, 6] was 81%, the “Amount of embryonate female rats” value [2, 6] was 16 and the “Amount of gestation female rats” value [2, 7] was 14. For the same compound, the Fertility index [2, 7] was 85%, the Gestation index [2, 7] was 82% and the “Amount of embryonate female rats” value [2, 7] was 17. The “Amount of babies delivered by 1 female” value ([2]; male rats 0.35 mg/kg) was 9.2 ± 1.1, the Post-implantation loss ([2]; male rats 0.35 mg/kg) was 5.3% and the “Postnatal loss after 3 weeks” value ([2]; male rats 0.35 mg/kg) was 2.8%. The Pre-implantation loss ([2]; male rats 0.35 mg/kg) was 5.1%, the “Weight of newborn baby rats” value ([2]; male rats 0.35 mg/kg) was 5.7 ± 0.9 g and the “Dynamics of babies' body weight, 1st week” value ([2]; male rats 0.35 mg/kg) was 19.2 ± 1.1 g. For the same compound, the “Dynamics of babies' body weight, 2nd week” value ([2]; male rats 0.35 mg/kg) was 25.2 ± 1.6 g, the “Dynamics of babies' body weight, 3rd week” value ([2]; male rats 0.35 mg/kg) was 45.7 ± 1.2 g and the “Dynamics of babies' body weight, 4th week” value ([2]; male rats 0.35 mg/kg) was 60.4 ± 1.9 g. The “Craniocaudal size of fetus” value ([2]; male rats 0.35 mg/kg) was 33 ± 2 mm, the Fetus weight ([2]; male rats 0.35 mg/kg) was 3.3 ± 0.2 g and the “Amount of dead fetuses” value ([2]; male rats 0.35 mg/kg) was 0. For the same compound, the “Amount of implantation sites” value ([2]; male rats 0.35 mg/kg) was 13.1 ± 1.0, the Amount of resorptions ([2]; male rats 0.35 mg/kg) was 0.6 ± 0.2 and the “Amount of viable fetuses” value ([2]; male rats 0.35 mg/kg) was 12.4 ± 0.8. For the same compound, the “Amount of yellow bodies” value ([2]; male rats 0.35 mg/kg) was 13.8 ± 1.2, the “Amount of babies delivered by 1 female” value ([2]; male rats 0.70 mg/kg) was 9.0 ± 1.2 and the Post-implantation loss ([2]; male rats 0.70 mg/kg) was 4.8%. For the same compound, the “Postnatal loss after 3 weeks” value ([2]; male rats 0.70 mg/kg) was 2.8%, the Pre-implantation loss ([2]; male rats 0.70 mg/kg) was 5.3% and the “Weight of newborn baby rats” value ([2]; male rats 0.70 mg/kg) was 5.8 ± 1.0 g. For the same compound, the “Dynamics of babies' body weight, 1st week” value ([2]; male rats 0.70 mg/kg) was 19.1 ± 0.8 g, the “Dynamics of babies' body weight, 2nd week” value ([2]; male rats 0.70 mg/kg) was 25.3 ± 1.2 g and the “Dynamics of babies' body weight, 3rd week” value ([2]; male rats 0.70 mg/kg) was 44.7 ± 1.5 g. The “Dynamics of babies' body weight, 4th week” value ([2]; male rats 0.70 mg/kg) was 59.8 ± 2.4 g, the “Craniocaudal size of fetus” value ([2]; male rats 0.70 mg/kg) was 33 ± 1 mm and the Fetus weight ([2]; male rats 0.70 mg/kg) was 3.3 ± 0.1 g. For the same compound, the “Amount of dead fetuses” value ([2]; male rats 0.70 mg/kg) was 0, the “Amount of implantation sites” value ([2]; male rats 0.70 mg/kg) was 12.5 ± 1.0 and the Amount of resorptions ([2]; male rats 0.70 mg/kg) was 0.5 ± 0.2. The “Amount of viable fetuses” value ([2]; male rats 0.70 mg/kg) was 11.9 ± 0.7, the “Amount of yellow bodies” value ([2]; male rats 0.70 mg/kg) was 13.2 ± 0.9 and the “Solubility (oil-soluble / water soluble)” value [3] was “oil-soluble”.
